Laboratory results: patent US20230140397A1, “ANTI-PSMA ANTIBODY-EXATECAN ANALOGUE CONJUGATE AND MEDICAL USE THEREOF” (JIANGSU HENGRUI PHARMACEUTICALS CO., LTD., priority 2020, published 2023)
pIC50: −log10 of the molar value.

Assays:
Test in all cases: Cell proliferation inhibition assay (ATP, CellTiter-Glo)
Format in all cases: cell-based
LNCaP cells = details: Homo sapiens, 120 h, 5 days, 4.5% FBS, read-out: Effect on cell killing (IC50)
Method: (§1) In this experiment, the content of ATP in the cells was detected, and the inhibitory effect of the PSMA ADC on the proliferation of cells (ATCC, LNCaP/CRL-1740, 22Rv1/CRL-2505 and PC-3/CRL-1435) was evaluated according to the IC50 values.
LNCaP cells were cultured in an RPMI-1640 medium containing 10% FBS, and passaged 2-3 times a week in a passage ratio of 1:3 or 1:6. During passaging, the medium was removed by pipetting, and the cell layer was rinsed with 5 mL of 0.25% pancreatin. Then the pancreatin was removed by pipetting, the cells were digested in an incubator for 3-5 min, and then a fresh medium was added to resuspend cells. To a 96-well culture plate were added 180 μL of cell suspension at a density of 2×10^3 cells/well and an RPMI-1640 medium containing 4.5% FBS, and to the periphery of the 96-well plate was only added the medium. The plate was incubated in an incubator for 24 h (37° C., 5% CO2).
Then 20 μL of the dilution was added to the above cell plate, and incubated in an incubator (37° C., 5% CO2) for 5 days. […] The chemiluminescence signal values were read on Victor3, and the data were processed using GraphPad software.

22Rv1 cells = details: Homo sapiens, 120 h; 22RV1, 5 days, 4.5% FBS; read-out: Effect on cell killing (IC50)
Method: as §1
(§2) Then 20 μL of the dilution was added to the above cell plate, and incubated in an incubator (37° C., 5% CO2) for 5 days. The compound 2-B (i.e., free toxin of 9-A) was diluted into a stock solution with DSMO, which was then prepared into an initial concentration of 200 μM with PBS, and diluted in a gradient dilution ratio of 1:6 with PBS to obtain 9 concentration points, and an additional 0 concentration point was set. Then 1 μL of the dilution was added to 20 μL of RPMI-1640, and the mixture was transferred to a 96-well culture plate, and incubated in an incubator (37° C., 5% CO2) for 5 days. In the 96-well culture plate, 80 μL of CellTiter-Glo reagent was added to each well, and the plate was incubated at room temperature for 10-15 min away from the light. The chemiluminescence signal values were read on Victor3, and the data were processed using GraphPad software.
22Rv1 cells were cultured in an RPMI-1640 medium containing 10% FBS, and passaged twice a week in a passage ratio of 1:3 or 1:6. During passaging, the medium was removed by pipetting, and the cell layer was rinsed with 5 mL of 0.25% pancreatin. […]

PC-3 cells = details: Homo sapiens, 120 h; PC-3, 5 days, 4.5% FBS; read-out: Effect on cell killing (IC50)
Method: as §1, §2
PC-3 cells were cultured in an F-12K medium containing 10% FBS, and passaged 2-3 times a week in a passage ratio of 1:3 or 1:6. During passaging, the medium was removed by pipetting, and the cell layer was rinsed with 5 mL of 0.25% pancreatin. […]

CC[C@@]1(O)C(=O)OCc2c1cc1n(c2=O)Cc2c-1nc1cc(F)c(C)c3c1c2[C@@H](NC(=O)[C@H](O)C1CC1)CC3 [Compound 2-B, (R)-2-cyclopropyl-N-((1S,9S)-9-ethyl-5-fluoro-9-hydroxy-4-methyl-10,13-dioxo-2,3,9,10,13,15-hexahydro-1H,12H-benzo[de]pyrano[3′,4′:6,7]indolizino[1,2-b]quinolin-1-yl)-2-hydroxyacetamide]
pIC50 (LNCaP cells): 8.77 | pIC50 (22Rv1 cells): 8.55 | pIC50 (PC-3 cells): 8.08
